This assay has as its system mice. It counts as in vivo. The note with it: for Hot plate Licking latency: antagonist pre-treatment + PS (no acetyl L-carnitine); for antagonism of the analgesia induced by acetyl L-carnitine: acetyl L-carnitine 100 mg/kg BID SC for 7 days, hot plate. Here is the method:
The analgesia induced by the acetyl L-carnitine (100 mg/kg BID, SC for 7 days) was determined in presence of some antagonists of some neurotransmission systems deeply involved in the regulation of pain threshold, and in particular the naloxone (opioid antagonist), the CGP-35348 (GABAB antagonist) and the alpha-methyl-p-tyrosine (inhibitor of the synthesis of cathecolamines).
In agreement with the standard procedures known by the person skilled in the art, the doses used for any antagonist were the minimum required to prevent the analgesia induced by morphine (7 mg/kg SC) (1, 100 e 200 mg/kg IP), baclofen (4 mg/kg SC) and amphetamine (1 mg/kg SC) (non-reported data) respectively.

Setting [1] is: dose (naloxone 1, CGP 35348 100, alpha-M-p-T 200, atropine 5 mg/kg, HC-3 1 μg, pirenzepine 0.1 μg, S-(−)-ET-126 0.1 μg ICV), before treatment.

Read-outs that look alike come from different tables or passages of the source.

The text below walks through data of patent US20090062388A1, “Use of acetyl L-carnitine for the preparation of a medication for the preventive therapy for pain” (Sigma-Tau Industrie Farmaceutiche Riunite S.p.A., priority 2001, published 2009).

As to `CCOC(OCC)P(=O)(O)CCCN` [CGP 35348, reference compound], the “Hot plate Licking latency” value worked out at 12.4 ± 1.0 s (after treatment 15 min), 12.6 ± 1.3 s (after treatment 30 min), 12.2 ± 1.6 s (after treatment 45 min) and 14.4 ± 0.8 s under setting [1].
For the molecule `CN1CCC(OC(=O)[C@H](CO)c2ccccc2)CC1` [S-(−)-ET-126, reference compound], the “antagonism of the analgesia induced by acetyl L-carnitine” value is “capable to antagonize the increase of the pain threshold”. The “Hot plate Licking latency” value (after treatment 15 min) came to 15.3 ± 1.8 s. Besides, the “Hot plate Licking latency” value (after treatment 30 min) was found to be 16.2 ± 1.9 s. The “Hot plate Licking latency” value (after treatment 45 min) came to 16.1 ± 2.0 s. The “Hot plate Licking latency” value under setting [1] is 15.0 ± 1.0 s.
As to `CN1[C@@H]2CC[C@H]1C[C@@H](OC(=O)C(CO)c1ccccc1)C2` (some centres unmarked) [Atropine, atropine, reference compound], the “antagonism of the analgesia induced by acetyl L-carnitine” value is on record as “capable to antagonize the increase of the pain threshold”. Besides, the “Hot plate Licking latency” value (after treatment 15 min) was found to be 13.7 ± 1.1 s. Besides, the “Hot plate Licking latency” value (after treatment 30 min) came out at 15.4 ± 1.2 s. In addition, the “Hot plate Licking latency” value (after treatment 45 min) was found to be 13.1 ± 1.9 s. For the same molecule, under setting [1], the “Hot plate Licking latency” value was found to be 14.1 ± 0.9 s.
For `C[N+]1(C)CCOC(O)(c2ccc(-c3ccc(C4(O)C[N+](C)(C)CCO4)cc3)cc2)C1.[Br-].[Br-]` (centres unmarked) [HC-3, hemicholinium-3, reference compound], in that order: “capable to antagonize the increase of the pain threshold”, 13.7 ± 1.1 s, 15.4 ± 1.2 s, 13.1 ± 1.9 s and 14.1 ± 0.9 s.
For `CN1CCN(CC(=O)N2c3ccccc3C(=O)Nc3cccnc32)CC1` [Pirenzepine, pirenzepine, reference compound] the same measures were “capable to antagonize the increase of the pain threshold”, 13.9 ± 1.5 s, 14.5 ± 1.8 s, 15.5 ± 1.5 s and 13.6 ± 0.8 s.
On to `CC(N)(Cc1ccc(O)cc1)C(=O)O` (stereo not drawn) [Alpha-M-p-T, alpha-methyl-p-tyrosine, reference compound], for which the “Hot plate Licking latency” value was determined as 15.4 ± 1.6 s (after treatment 15 min), 16.1 ± 1.8 s (after treatment 30 min), 13.6 ± 1.5 s (after treatment 45 min) and 14.6 ± 0.9 s under setting [1].
`C=CCN1CC[C@]23c4c5ccc(O)c4O[C@H]2C(=O)CC[C@@]3(O)[C@H]1C5` [Naloxone, naloxone, reference compound]: the “Hot plate Licking latency” value runs as follows: (after treatment 15 min) 13.3 ± 1.3 s; (after treatment 30 min) 13.1 ± 1.1 s; (after treatment 45 min) 14.2 ± 1.3 s; under setting [1], 14.0 ± 0.7 s.
